According to patent US4055640A, “Compositions and methods for controlling the growth of bacteria, fungi and algae using certain derivatives of N-(2,2-dichlorovinyl)salicylamides” (Nippon Kayaku Co., Ltd., priority 1975, dated 1977):
In brackets after ≈: the same amount, converted by molar mass. Counter-ions that a name gives are not always drawn.

Assays:
Staphylococcus aureus = assay: Growth inhibition zones around treated clothes (Example 16); assay type: cell-based
Method: (§1) The emulsifiable concentrate which was prepared by Example 10 and which contained 10% of Compound No. 1 was entered to three vessels. These emulsifiable concentrates were diluted with water 500 times, 1000 times and 2000 times respectively. Emulsions were obtained. Each of silk, cotton and vinylon clothes was dipped into the three different concentrations of emulsions for 3 minutes and dried for 24 hours at room temperature. The clothes dreid were cut into a square of which a side was 1 cm long.
(§2) Test bacteria and fungi were inoculated on the whole surfaces of the plates of potato-dextrose agar medium. The square clothes were placed on the plates of agar culture medium of potato. The inoculated bacteria and fungi were incubated at 28° C for 4 days. The width of zones in which the growth of the test bateria and fungi was inhibited in the environment of the clothes was measured.

Penicillium citrenum = assay: as above; assay type: cell-based
Method: as §1, §2

Aspergillus niger = assay: as above; assay type: cell-based
Method: as §1, §2

Bacillus subtilis = assay: as above; assay type: cell-based
Method: as §1, §2

Geotrichum candium = assay: Minimum inhibitory concentration, dilution methods (Example 14); assay type: cell-based
From the text: Bacteriocidal activity and fungicidal activity of the active compounds of the present invention were examined by potato-dextrose agar dilution method, [2] waxman's liquid medium dilution method or [3] glucose bouillon medium dilution method. The results are shown in Table 4 below as the minimum inhibitory concentration (the minimum concentration of active compound found to produce 100% control of the test bacteria and fungi).

[1] = acute oral toxicity against a mouse; settings: in vivo
[2] = system: bacteria gathered from circular water system; assay: Degree of propagation on slime test boards (Example 19); assay type: cell-based; parameters: key: -: no propagation; +: the area of propagation is 1 - 25% on the slime test boards.; ++: the area of propagation is 26 - 50% on the slime test boards.; +++: the area of propagation is 51 - 75% on the slime test boards.; ++++: the area of propagation is 76 - 100% on the slime test boards
Method: (§3) Zero point zero two (0.02) part of active compounds in the form of 10% water soluble concentrate which was prepared by Example 13 was added into 100 parts of Waxman's liquid medium. Pieces of wood and iron (hereafter referred to as the slime test boards) were soaked into the Waxman's liquid medium. The bacteria which were gathered from circular water system were inoculated upon the Waxman's liquid medium and incubated at 27° C-34° C by shaking culture. The degree of propagation of the bacteria on the slime test boards was examined.
(§4) The growth-inhibiting activity of active compounds against the fungi and the green algae was also examined by the same method as mentioned above.
(§5) The degree of propagation of the bacteria, fungi or green algae on the slime test boards is defined in terms of the following symbols.

fungi = assay: as above; assay type: cell-based; parameters: key: -: no propagation; +: the area of propagation is 1 - 25% on the slime test boards.; ++: the area of propagation is 26 - 50% on the slime test boards.; +++: the area of propagation is 51 - 75% on the slime test boards.; ++++: the area of propagation is 76 - 100% on the slime test boards
Method: as §3, §4, §5

green algae = assay: as above; assay type: cell-based; parameters: key: -: no propagation; +: the area of propagation is 1 - 25% on the slime test boards.; ++: the area of propagation is 26 - 50% on the slime test boards.; +++: the area of propagation is 51 - 75% on the slime test boards.; ++++: the area of propagation is 76 - 100% on the slime test boards
Method: as §3, §4, §5

[3] = system: Aspergillus niger, Penicillium citrinum, Cladosporium harbarum and chaetomium globosum; assay: Degree of growth inhibition of fungi on treated beach plates (Example 17); assay type: cell-based; parameters: scale not given here; settings: numerical rating, 2 weeks
Summary of the method: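 Beech plates were dipped for 2 minutes in emulsifiable concentrate diluted 400- and 800-fold in water, then dried for 24 hours. They were laid on agar and sprayed with spores of each fungus, then incubated at 95% humidity and 28° C for 2 weeks. Growth inhibition was scored on a numerical rating scale.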

[4] = system: Bacteria, fungi and slime; assay: Inhibition of bacteria, fungi and slime in use (Example 13); settings: water soluble concentrate; 10-20 ppm in water, 0.01%-0.1% in pastes
Method: Before application, the concentrate was diluted 500-1000 times with water and sprayed on the inside of cotes to prevent the growth of bacterial and fungi.
The solution was added to water in circular water systems to inhibit the growth of slime. The concentration of Compound No. 20 in the water was 10-20 ppm.
An amount from 0.01%-0.1% of Compound No. 20 as the solution was added to pastes or binding agents to prevent rottenness of them.

O=C(NC=C(Cl)Cl)c1ccccc1O [Compound No. 1, N-(β,β-dichlorovinyl) salicylamide]
width of growth inhibition zones (Staphylococcus aureus; Cotton, 0.005 %): 5 mm
width of growth inhibition zones (Staphylococcus aureus; Cotton, 0.01 %): 9 mm
width of growth inhibition zones (Staphylococcus aureus; Cotton, 0.02 %): 13 mm
width of growth inhibition zones (Staphylococcus aureus; Silk, 0.005 %): 5 mm
width of growth inhibition zones (Staphylococcus aureus; Silk, 0.01 %): 8 mm
width of growth inhibition zones (Staphylococcus aureus; Silk, 0.02 %): 12 mm
width of growth inhibition zones (Staphylococcus aureus; Vinylon, 0.005 %): 4 mm
width of growth inhibition zones (Staphylococcus aureus; Vinylon, 0.01 %): 7 mm
width of growth inhibition zones (Staphylococcus aureus; Vinylon, 0.02 %): 11 mm
width of growth inhibition zones (Penicillium citrenum; Cotton, 0.005 %): 5 mm
width of growth inhibition zones (Penicillium citrenum; Cotton, 0.01 %): 7 mm
width of growth inhibition zones (Penicillium citrenum; Cotton, 0.02 %): 9 mm
width of growth inhibition zones (Penicillium citrenum; Silk, 0.005 %): 4 mm
width of growth inhibition zones (Penicillium citrenum; Silk, 0.01 %): 6 mm
width of growth inhibition zones (Penicillium citrenum; Silk, 0.02 %): 7 mm
width of growth inhibition zones (Penicillium citrenum; Vinylon, 0.005 %): 3 mm
width of growth inhibition zones (Penicillium citrenum; Vinylon, 0.01 %): 5 mm
width of growth inhibition zones (Penicillium citrenum; Vinylon, 0.02 %): 7 mm
width of growth inhibition zones (Aspergillus niger; Cotton, 0.005 %): 6 mm
width of growth inhibition zones (Aspergillus niger; Cotton, 0.01 %): 8 mm
width of growth inhibition zones (Aspergillus niger; Cotton, 0.02 %): 11 mm
width of growth inhibition zones (Aspergillus niger; Silk, 0.005 %): 5 mm
width of growth inhibition zones (Aspergillus niger; Silk, 0.01 %): 7 mm
width of growth inhibition zones (Aspergillus niger; Silk, 0.02 %): 8 mm
width of growth inhibition zones (Aspergillus niger; Vinylon, 0.005 %): 4 mm
width of growth inhibition zones (Aspergillus niger; Vinylon, 0.01 %): 6 mm
width of growth inhibition zones (Aspergillus niger; Vinylon, 0.02 %): 8 mm
width of growth inhibition zones (Bacillus subtilis; Cotton, 0.005 %): 3 mm
width of growth inhibition zones (Bacillus subtilis; Cotton, 0.01 %): 6 mm
width of growth inhibition zones (Bacillus subtilis; Cotton, 0.02 %): 10 mm
width of growth inhibition zones (Bacillus subtilis; Silk, 0.005 %): 3 mm
width of growth inhibition zones (Bacillus subtilis; Silk, 0.01 %): 6 mm
width of growth inhibition zones (Bacillus subtilis; Silk, 0.02 %): 10 mm
width of growth inhibition zones (Bacillus subtilis; Vinylon, 0.005 %): 2 mm
width of growth inhibition zones (Bacillus subtilis; Vinylon, 0.01 %): 5 mm
width of growth inhibition zones (Bacillus subtilis; Vinylon, 0.02 %): 9 mm
MIC (Geotrichum candium; (1) potato-dextrose agar dilution method): 10 µg/mL (≈ 43.1 µM)
MIC (Geotrichum candium; (2) waxman's liquid medium dilution method): 20 µg/mL (≈ 86.2 µM)
LD50 [1]: > 6000 mg/kg

O=C(NC=C(Cl)Cl)c1ccccc1O [Compound No. 20, sodium salt of N-(β,β-dichlorovinyl) salicylamide]
Degree of propagation ([2]; 7th day): -
Degree of propagation ([2]; 14th day): -
Degree of propagation ([2]; 21st day): -
Degree of propagation (fungi; 7th day): -
Degree of propagation (fungi; 14th day): -
Degree of propagation (fungi; 21st day): -
Degree of propagation (green algae; 7th day): -
Degree of propagation (green algae; 14th day): -
Degree of propagation (green algae; 21st day): -
Degree of growth inhibition ([3]; 0.0125 %): 3
Degree of growth inhibition ([3]; 0.025 %): 3
inhibition of bacteria, fungi and slime [4]: inhibited for a long time
